By IC50 is commonly meant the point on the concentration scale where inhibition reaches its midpoint. Low values mean higher potency, high ones lower potency.

In US9539260B2, “Dihydro-benzo-oxazine and dihydro-pyrido-oxazine derivatives” (Novartis AG, priority 2012, dated 2017) one finds IC50 data, which are given here for 26 compounds.

One experiment concerns the target PI3K delta (Homo sapiens (Human), UniProt O00329). The experiment in a line: Enzymatic PI3K delta isoform inhibition (lipid kinase activity, Kinase-Glo luminescence). The settings on record: Enzymatic assay. Format: biochemical. A digest of the protocol:
(§1)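 ATP-depletion format: 10 nM PI3K with 5 μg/mL phosphatidylinositol and 2 μM ATP, run to ~50% ATP consumption, then Kinase-Glo added and remaining ATP read by luminescence after 5 min. IC50 from 4-parameter logistic fit, typically over 8 concentrations 10–0.003 μM.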
A general note: Kinase-Glo measures the ATP left after a reaction by luminescence.

The target in the next experiment is PI3K alpha (Homo sapiens (Human), UniProt P42336). The experiment in a line: Enzymatic PI3K alpha isoform inhibition (lipid kinase activity, Kinase-Glo luminescence). Format: biochemical. As to conditions: Enzymatic assay. An outline of the steps:
as §1

Chain of PI3K alpha (P42336 other isoform, or with tags, fused parts or gaps): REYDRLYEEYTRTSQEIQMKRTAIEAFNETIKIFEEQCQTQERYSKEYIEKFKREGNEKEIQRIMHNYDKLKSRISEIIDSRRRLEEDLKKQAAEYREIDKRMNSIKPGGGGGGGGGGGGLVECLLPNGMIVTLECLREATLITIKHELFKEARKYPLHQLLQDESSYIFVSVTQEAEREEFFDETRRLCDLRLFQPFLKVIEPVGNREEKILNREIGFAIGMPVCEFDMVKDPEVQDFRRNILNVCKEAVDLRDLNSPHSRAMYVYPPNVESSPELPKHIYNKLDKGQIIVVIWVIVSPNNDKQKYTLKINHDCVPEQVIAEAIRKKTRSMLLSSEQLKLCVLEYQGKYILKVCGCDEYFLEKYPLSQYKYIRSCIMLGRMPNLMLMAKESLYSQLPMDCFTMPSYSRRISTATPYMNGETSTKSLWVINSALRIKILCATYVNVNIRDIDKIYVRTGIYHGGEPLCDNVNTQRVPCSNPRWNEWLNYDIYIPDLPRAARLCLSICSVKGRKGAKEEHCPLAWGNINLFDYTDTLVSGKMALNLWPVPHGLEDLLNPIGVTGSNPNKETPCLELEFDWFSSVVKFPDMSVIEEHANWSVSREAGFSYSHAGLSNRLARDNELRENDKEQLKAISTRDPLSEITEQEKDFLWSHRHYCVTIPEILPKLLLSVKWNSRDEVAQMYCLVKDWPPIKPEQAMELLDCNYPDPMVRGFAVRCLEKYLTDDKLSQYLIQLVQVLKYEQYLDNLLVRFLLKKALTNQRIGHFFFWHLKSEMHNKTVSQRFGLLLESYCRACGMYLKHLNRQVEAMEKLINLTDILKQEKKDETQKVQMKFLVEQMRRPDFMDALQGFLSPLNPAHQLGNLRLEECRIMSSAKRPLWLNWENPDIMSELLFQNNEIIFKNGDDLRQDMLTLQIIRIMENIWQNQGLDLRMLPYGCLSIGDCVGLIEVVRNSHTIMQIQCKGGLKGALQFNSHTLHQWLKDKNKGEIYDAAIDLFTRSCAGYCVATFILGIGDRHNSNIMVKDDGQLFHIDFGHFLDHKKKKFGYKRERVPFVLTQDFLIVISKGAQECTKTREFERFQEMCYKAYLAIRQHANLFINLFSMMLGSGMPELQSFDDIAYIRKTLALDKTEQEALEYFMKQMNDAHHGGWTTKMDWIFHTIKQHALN
Chain of PI3K delta (O00329 other isoform, or with tags, fused parts or gaps linker GGGGGG): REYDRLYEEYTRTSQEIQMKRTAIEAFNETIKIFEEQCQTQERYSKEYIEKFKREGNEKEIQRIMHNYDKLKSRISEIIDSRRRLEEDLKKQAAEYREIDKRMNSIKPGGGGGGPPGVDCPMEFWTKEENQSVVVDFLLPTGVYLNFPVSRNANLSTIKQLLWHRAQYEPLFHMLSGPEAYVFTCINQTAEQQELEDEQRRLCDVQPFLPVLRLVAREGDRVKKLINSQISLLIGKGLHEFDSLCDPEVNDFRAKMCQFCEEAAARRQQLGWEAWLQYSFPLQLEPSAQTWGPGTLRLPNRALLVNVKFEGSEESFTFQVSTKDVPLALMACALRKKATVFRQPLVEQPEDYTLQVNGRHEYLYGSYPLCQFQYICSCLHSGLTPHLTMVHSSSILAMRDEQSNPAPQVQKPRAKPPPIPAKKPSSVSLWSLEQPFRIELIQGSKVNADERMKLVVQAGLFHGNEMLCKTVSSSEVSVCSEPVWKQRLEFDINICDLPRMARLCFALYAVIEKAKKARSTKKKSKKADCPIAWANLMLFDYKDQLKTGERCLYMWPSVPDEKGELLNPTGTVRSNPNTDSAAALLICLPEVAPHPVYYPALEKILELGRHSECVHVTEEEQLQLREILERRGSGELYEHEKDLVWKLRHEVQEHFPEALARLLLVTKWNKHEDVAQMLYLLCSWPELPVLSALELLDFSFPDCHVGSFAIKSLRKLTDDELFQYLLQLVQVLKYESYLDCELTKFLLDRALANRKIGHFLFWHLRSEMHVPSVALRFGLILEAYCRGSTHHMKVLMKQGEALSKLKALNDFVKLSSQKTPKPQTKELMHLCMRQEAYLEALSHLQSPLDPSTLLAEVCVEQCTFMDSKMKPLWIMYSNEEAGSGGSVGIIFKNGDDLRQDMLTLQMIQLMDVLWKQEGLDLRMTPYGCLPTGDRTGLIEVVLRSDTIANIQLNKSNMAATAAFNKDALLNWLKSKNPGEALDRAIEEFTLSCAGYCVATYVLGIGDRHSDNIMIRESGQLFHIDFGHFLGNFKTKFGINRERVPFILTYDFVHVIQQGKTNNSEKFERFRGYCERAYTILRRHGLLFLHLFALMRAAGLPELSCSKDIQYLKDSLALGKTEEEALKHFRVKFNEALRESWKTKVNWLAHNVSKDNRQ

Consider `COc1ncc(N2CCOc3ccc(O[C@H]4CCN(C(=O)C5CCS(=O)(=O)CC5)C4)cc32)cc1C(F)(F)F` [Example B14, (1,1-Dioxo-hexahydro-1lambda*6*-thiopyran-4-yl)-{(S)-3-[4-(6-methoxy-5-trifluoromethyl-pyridin-3-yl)-3,4-dihydro-2H-benzo[1,4]oxazin-6-yloxy]-pyrrolidin-1-yl}-methanone], for which the IC50 came out at 0.006 µM against PI3K delta and 0.244 µM on PI3K alpha.

In the case of `CCC(=O)N1CC[C@H](Oc2ccc3c(c2)N(c2cncc(C(F)(F)F)c2)CCO3)C1` [Example A38, 1-{(S)-3-[4-(5-Trifluoromethyl-pyridin-3-yl)-3,4-dihydro-2H-benzo[1,4]oxazin-6-yloxy]-pyrrolidin-1-yl}-propan-1-one], the results for the IC50 against PI3K delta and against PI3K alpha were 0.064 µM and 0.343 µM, respectively.

Regarding `Cc1cc(N2CCOc3ccc(O[C@H]4CCN(C(=O)C5CCOC5)C4)cc32)cnc1S(C)(=O)=O` (stereo partly drawn) [Example B31, {(S)-3-[4-(6-Methanesulfonyl-5-methyl-pyridin-3-yl)-3,4-dihydro-2H-benzo[1,4]oxazin-6-yloxy]-pyrrolidin-1-yl}-(tetrahydro-furan-3-yl)-methanone], the IC50 at PI3K delta came out at 0.003 µM; against PI3K alpha, 0.977 µM.

Consider `CCC(=O)N1CC[C@H](Oc2ccc3c(c2)N(c2cnc(OC)c(C(F)(F)F)c2)CCO3)C1` [Example A10, 1-{(S)-3-[4-(6-Methoxy-5-trifluoromethyl-pyridin-3-yl)-3,4-dihydro-2H-benzo[1,4]oxazin-6-yloxy]-pyrrolidin-1-yl}-propan-1-one], for which the IC50 on PI3K delta worked out at 0.018 µM; against PI3K alpha, 0.22 µM.

As for `COc1ncc(N2CCOc3ccc(O[C@H]4CCN(C(=O)C5CCS(=O)(=O)C5)C4)cc32)cc1F` (stereo partly drawn) [Example B101, (1,1-Dioxo-tetrahydro-1lambda*6*-thiophen-3-yl)-{(S)-3-[4-(5-fluoro-6-methoxy-pyridin-3-yl)-3,4-dihydro-2H-benzo[1,4]oxazin-6-yloxy]-pyrrolidin-1-yl}-methanone], the IC50 at PI3K delta was determined as 0.015 µM; against PI3K alpha, 0.471 µM.

On to `Cc1cnccc1C(=O)N1CC[C@H](Oc2ccc3c(c2)N(c2cnc(S(C)(=O)=O)c(C)c2)CCO3)C1` [Example B67, {(S)-3-[4-(6-Methanesulfonyl-5-methyl-pyridin-3-yl)-3,4-dihydro-2H-benzo[1,4]oxazin-6-yloxy]-pyrrolidin-1-yl}-(3-methyl-pyridin-4-yl)-methanone], for which the IC50 worked out at 0.025 µM against PI3K delta and 0.804 µM on PI3K alpha.

On to `CCC(=O)N1CC[C@H](Oc2ccc3c(c2)N(c2ccc(C)c(C#N)c2)CCO3)C1` [Example A40, 2-Methyl-5-[6-((S)-1-propionyl-pyrrolidin-3-yloxy)-2,3-dihydro-benzo[1,4]oxazin-4-yl]-benzonitrile], for which the IC50 is 0.462 µM on PI3K delta and 5.36 µM against PI3K alpha.

With `COc1cc(N2CCOc3ccc(O[C@H]4CCN(C(=O)CCO)C4)cc32)cnc1Cl` [Example B57, 1-{(S)-3-[4-(6-Chloro-5-methoxy-pyridin-3-yl)-3,4-dihydro-2H-benzo[1,4]oxazin-6-yloxy]-pyrrolidin-1-yl}-3-hydroxy-propan-1-one], the results for the IC50 on PI3K delta and against PI3K alpha were 0.095 µM and 2.27 µM, respectively.

In the case of `COc1ncc(N2CCOc3ccc(O[C@H]4CCN(C(=O)c5cnn6cccnc56)C4)cc32)cc1C#N` [Example C22, 2-Methoxy-5-{6-[(S)-1-(pyrazolo[1,5-a]pyrimidine-3-carbonyl)-pyrrolidin-3-yloxy]-2,3-dihydro-benzo[1,4]oxazin-4-yl}-nicotinonitrile], the IC50 against PI3K delta turned out to be 0.02 µM; on PI3K alpha it was 0.202 µM.

For the compound `COc1ncc(N2CCOc3ccc(O[C@H]4CCN(C(=O)C5CCS(=O)(=O)CC5)C4)cc32)cc1C` [Example B93, (1,1-Dioxo-hexahydro-1lambda*6*-thiopyran-4-yl)-{(S)-3-[4-(6-methoxy-5-methyl-pyridin-3-yl)-3,4-dihydro-2H-benzo[1,4]oxazin-6-yloxy]-pyrrolidin-1-yl}-methanone], the IC50 on PI3K delta is 0.004 µM; at PI3K alpha, 0.525 µM.

Turning to `Cc1cc(N2CCOc3cnc(O[C@H]4CCN(C(=O)C5CCOCC5)C4)cc32)cnc1OC(F)F` [Example E9, {(S)-3-[1-(6-Difluoromethoxy-5-methyl-pyridin-3-yl)-2,3-dihydro-1H-pyrido[3,4-b][1,4]oxazin-7-yloxy]pyrrolidin-1-yl}-(tetrahydro-pyran-4-yl)-methanone], the IC50 against PI3K delta stood at 0.007 µM; on PI3K alpha, 0.593 µM.

Take `COc1ncc(N2CCOc3ccc(O[C@H]4CCN(C(=O)CN(C)C)C4)cc32)cc1C#N` [Example D6, 5-{6-[(S)-1-(2-Dimethylamino-acetyl)-pyrrolidin-3-yloxy]-2,3-dihydro-benzo[1,4]oxazin-4-yl}-2-methoxy-nicotinonitrile]: the IC50 is 0.009 µM on PI3K delta and 0.65 µM against PI3K alpha.

For `COc1ncc(N2CCOc3ccc(O[C@H]4CON(C(=O)C5CCOCC5)C4)cc32)cc1C#N` [Example D22, 2-Methoxy-5-{6-[(R)-2-(tetrahydro-pyran-4-carbonyl)-isoxazolidin-4-yloxy]-2,3-dihydro-benzo[1,4]oxazin-4-yl}-nicotinonitrile], the IC50 on PI3K delta came to 0.024 µM; against PI3K alpha, 1.02 µM.

`CCC(=O)N1CC[C@H](Oc2ccc3c(c2)N(c2cnc(OC)c(OC)c2)CCO3)C1` [Example B4, 1-{(S)-3-[4-(5,6-Dimethoxy-pyridin-3-yl)-3,4-dihydro-2H-benzo[1,4]oxazin-6-yloxy]-pyrrolidin-1-yl}-propan-1-one]: the IC50 against PI3K delta came out at 0.083 µM; against PI3K alpha, 1.23 µM.

Turning to `CCC(=O)N1CC[C@H](Oc2ccc3c(c2)N(c2cnc(OC)c(F)c2)CCO3)C1` [Example A11, 1-{(S)-3-[4-(5-Fluoro-6-methoxy-pyridin-3-yl)-3,4-dihydro-2H-benzo[1,4]oxazin-6-yloxy]-pyrrolidin-1-yl}-propan-1-one], the figures for the IC50 at PI3K delta and on PI3K alpha were 0.069 µM and 2.28 µM, respectively.

Take `COCCC(=O)N1CC[C@H](Oc2ccc3c(c2)N(c2cnc(S(C)(=O)=O)c(C)c2)CCO3)C1` [Example B37, 1-{(S)-3-[4-(6-Methanesulfonyl-5-methyl-pyridin-3-yl)-3,4-dihydro-2H-benzo[1,4]oxazin-6-yloxy]-pyrrolidin-1-yl}-3-methoxy-propan-1-one]: the IC50 against PI3K delta was found to be 0.103 µM; against PI3K alpha it was 1.1 µM.

For the compound `COc1ncc(N2CCOc3ccc(O[C@H]4CCN(C(=O)C5COCCO5)C4)cc32)cc1C#N` (stereo partly drawn) [Example C25, 5-{6-[(S)-1-([1,4]Dioxane-2-carbonyl)-pyrrolidin-3-yloxy]-2,3-dihydro-benzo[1,4]oxazin-4-yl}-2-methoxy-nicotinonitrile], the IC50 at PI3K delta was found to be 0.0125 µM; against PI3K alpha it was 0.474 µM.

`Cc1cc(N2CCOc3ccc(O[C@H]4CCN(S(=O)(=O)C(C)C)C4)cc32)cnc1S(C)(=O)=O` [Example B82, 4-(6-Methanesulfonyl-5-methyl-pyridin-3-yl)-6-[(S)-1-(propane-2-sulfonyl)-pyrrolidin-3-yloxy]-3,4-dihydro-2H-benzo[1,4]oxazine]: the IC50 came out at 0.066 µM on PI3K delta and 0.353 µM on PI3K alpha.

For the compound `COc1ncc(N2CCOc3ccc(O[C@H]4CCN(C(=O)CS(C)(=O)=O)C4)cc32)cc1F` [Example B111, 1-{(S)-3-[4-(5-Fluoro-6-methoxy-pyridin-3-yl)-3,4-dihydro-2H-benzo[1,4]oxazin-6-yloxy]-pyrrolidin-1-yl}-2-methanesulfonyl-ethanone], the IC50 is 0.06 µM against PI3K delta and 0.685 µM against PI3K alpha.

Regarding `COc1ncc(N2CCOc3ccc(O[C@H]4CCN(C(=O)c5ccc(=O)[nH]c5)C4)cc32)cc1C#N` [Example D20, 2-Methoxy-5-{6-[(S)-1-(6-oxo-1,6-dihydro-pyridine-3-carbonyl)-pyrrolidin-3-yloxy]-2,3-dihydro-benzo[1,4]oxazin-4-yl}-nicotinonitrile], the IC50 amounted to 0.007 µM against PI3K delta and 0.206 µM on PI3K alpha.

With `COc1ncc(N2CCOc3ccc(O[C@H]4CCN(C(=O)CCS(C)(=O)=O)C4)cc32)cc1Cl` [Example B106, 1-{(S)-3-[4-(5-Chloro-6-methoxy-pyridin-3-yl)-3,4-dihydro-2H-benzo[1,4]oxazin-6-yloxy]-pyrrolidin-1-yl}-3-methanesulfonyl-propan-1-one], the IC50 came out at 0.017 µM on PI3K delta and 0.247 µM on PI3K alpha.

Take `CCC(=O)N1CC[C@H](Oc2ccc3c(c2)N(c2ccc(OC)c(OC)c2)CCO3)C1` [Example A35, 1-{(S)-3-[4-(3,4-Dimethoxy-phenyl)-3,4-dihydro-2H-benzo[1,4]oxazin-6-yloxy]-pyrrolidin-1-yl}-propan-1-one]: the IC50 was found to be 1.42 µM on PI3K delta and 5.59 µM at PI3K alpha.

As for `COc1cc(N2CCOc3ccc(O[C@H]4CCN(C(=O)C5CCS(=O)(=O)CC5)C4)cc32)cnc1Cl` [Example B56, {(S)-3-[4-(6-Chloro-5-methoxy-pyridin-3-yl)-3,4-dihydro-2H-benzo[1,4]oxazin-6-yloxy]-pyrrolidin-1-yl}-(1,1-dioxo-hexahydro-1lambda*6*-thiopyran-4-yl)-methanone], the IC50 against PI3K delta worked out at 0.023 µM; against PI3K alpha, 1.42 µM.

For the compound `COc1ncc(N2CCOc3ccc(O[C@H]4CCN(C(=O)c5ccc(=O)n(C)c5)C4)cc32)cc1C` [Example B95, 5-{(S)-3-[4-(6-Methoxy-5-methyl-pyridin-3-yl)-3,4-dihydro-2H-benzo[1,4]oxazin-6-yloxy]-pyrrolidine-1-carbonyl}-1-methyl-1H-pyridin-2-one], the IC50 amounted to 0.009 µM at PI3K delta and 0.438 µM at PI3K alpha.

On to `COc1ncc(N2CCOc3ccc(O[C@H]4CCN(C(=O)C5CCCOC5)C4)cc32)cc1C#N` (stereo partly drawn) [Example C26, 2-Methoxy-5-{6-[(S)-1-(tetrahydro-pyran-3-carbonyl)-pyrrolidin-3-yloxy]-2,3-dihydro-benzo[1,4]oxazin-4-yl}-nicotinonitrile], for which the IC50 was found to be 3.22 µM at PI3K delta and 6.95 µM at PI3K alpha.

Regarding `COc1ncc(N2CCOc3ccc(O[C@H]4CCN(C(=O)C5COCCO5)C4)cc32)cc1F` (single isomer, unassigned) [Example H16], the IC50 against PI3K delta came to 0.016 µM; against PI3K alpha, 0.871 µM.
